Source: ChEMBL document CHEMBL1201862, “PubChem BioAssay data set” (2004)
Values joined by “and” are separate entries in the source; they are usually repeats but may differ in a detail not shown here. Equal entries are not always repeated.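 Compound exposure: 48 hours, 5 concentrations, 96-well plates. GI50 = concentration required for 50% inhibition of growth.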 Active and inactive are the calls of the source. Cut-off read from the data, not from the text of the source: active = GI50 up to about 1.1 µM and inactive = higher.

Legend:
Assay in all cases: NCI-60 cell line screen, 48 h
[1] = tested on: MCF7
[2] = tested on: SF-268
[3] = tested on: HCT-15
[4] = tested on: MDA-MB-435
[5] = tested on: HT-29
[6] = tested on: RPMI-8226
[7] = tested on: A549
[8] = tested on: HCT-116
[9] = tested on: OVCAR-5
[10] = tested on: OVCAR-3
[11] = tested on: NCI-H23
[12] = tested on: SK-MEL-5
[13] = tested on: SNB-19
[14] = tested on: UACC-257
[15] = tested on: LOX IMVI
[16] = tested on: MDA-N
[17] = tested on: PC-3
[18] = tested on: SF-539
[19] = tested on: Hs-578T
[20] = tested on: HL-60
[21] = tested on: SK-MEL-2
[22] = tested on: IGROV-1
[23] = tested on: U-251
[24] = tested on: MOLT-4
[25] = tested on: MDA-MB-231
[26] = tested on: OVCAR-4
[27] = tested on: Malme-3M
[28] = tested on: SNB-75
[29] = tested on: TK-10
[30] = tested on: COLO 205
[31] = tested on: SW-620
[32] = tested on: SN12C
[33] = tested on: UO-31
[34] = tested on: K562
[35] = tested on: NCI-H522
[36] = tested on: SK-OV-3
[37] = tested on: UACC-62
[38] = tested on: DU-145
[39] = tested on: NCI/ADR-RES
[40] = tested on: SF-295
[41] = tested on: 786-0
[42] = tested on: NCI-H226
[43] = tested on: CCRF-CEM
[44] = tested on: EKVX
[45] = tested on: SK-MEL-28
[46] = tested on: A498
[47] = tested on: ACHN
[48] = tested on: KM12
[49] = tested on: OVCAR-8
[50] = tested on: M14
[51] = tested on: BT-549
[52] = tested on: HOP-62
[53] = tested on: CAKI-1
[54] = tested on: RXF 393
[55] = tested on: HCC 2998
[56] = tested on: SR
[57] = tested on: NCI-H460
[58] = tested on: HOP-92

For `O=C1C=C2CC[C@H]3[C@@H]4CC[C@H](OC(=O)c5cccc6cc7ccccc7nc56)[C@H]4CC[C@@H]3[C@H]2CC1`, the GI50 [1] was > 100 µM (inactive), the GI50 [2] was > 100 µM (inactive) and the GI50 [3] was > 100 µM. The GI50 [4] was > 100 µM (inactive), the GI50 [5] was > 100 µM (inactive) and the GI50 [6] was 93.3 µM (inactive). The GI50 [7] was > 100 µM (inactive), the GI50 [8] was > 100 µM (inactive) and the GI50 [9] was > 100 µM (inactive). The GI50 [10] was 39.5 µM (inactive), the GI50 [11] was > 100 µM (inactive) and the GI50 [12] was > 100 µM (inactive). For the same compound, the GI50 [13] was > 100 µM (inactive), the GI50 [14] was > 100 µM (inactive) and the GI50 [15] was 15.9 µM (inactive). The GI50 [16] was > 100 µM (inactive), the GI50 [17] was > 100 µM (inactive) and the GI50 [18] was > 100 µM (inactive). For the same compound, the GI50 [19] was > 100 µM (inactive), the GI50 [20] was > 100 µM (inactive) and the GI50 [21] was > 100 µM (inactive). The GI50 [22] was > 100 µM (inactive), the GI50 [23] was 99.3 µM (inactive) and the GI50 [24] was 54.3 µM (inactive). For the same compound, the GI50 [25] was 50.1 µM (inactive), the GI50 [26] was > 100 µM (inactive) and the GI50 [27] was > 100 µM (inactive). The GI50 [28] was > 100 µM (inactive), the GI50 [29] was > 100 µM (inactive) and the GI50 [30] was > 100 µM (inactive). For the same compound, the GI50 [31] was > 100 µM (inactive), the GI50 [32] was > 100 µM (inactive) and the GI50 [33] was 79.6 µM (inactive). The GI50 [34] was 40.1 µM (inactive), the GI50 [35] was 25.5 µM (inactive) and the GI50 [36] was > 100 µM (inactive). The GI50 [37] was > 100 µM (inactive), the GI50 [38] was > 100 µM (inactive) and the GI50 [39] was > 100 µM (inactive). For the same compound, the GI50 [40] was > 100 µM (inactive), the GI50 [41] was > 100 µM (inactive) and the GI50 [42] was > 100 µM (inactive). The GI50 [43] was 24.7 µM (inactive), the GI50 [44] was 63.1 µM (inactive) and the GI50 [45] was > 100 µM (inactive). For the same compound, the GI50 [46] was > 100 µM (inactive), the GI50 [47] was > 100 µM (inactive) and the GI50 [48] was > 100 µM (inactive). For the same compound, the GI50 [49] was > 100 µM (inactive), the GI50 [50] was > 100 µM (inactive) and the GI50 [51] was > 100 µM (inactive). The GI50 [52] was > 100 µM (inactive).

In the case of `CC1OC(OC2C(OC(=O)[C@]34CCC(C)(C)C[C@H]3C3=CC[C@@H]5[C@@]6(C)CC[C@H](OC7OC(C(=O)O)C(O)C(OC8OCC(O)C(O)C8O)C7O)C(C)(C)[C@@H]6CC[C@@]5(C)[C@]3(C)CC4)OCC(O)C2O)C(O)C(OC2OCC(O)C(O)C2O)C1OC1OCC(O)C(OC2OCC(O)C(O)C2O)C1O` (stereo not given in full), the GI50 [1] is reported as 7.93 µM (inactive) and 5.35 µM (inactive), the GI50 [2] is reported as 16.7 µM (inactive) and 8.51 µM (inactive) and the GI50 [3] is reported as 18.6 µM and 15.3 µM. For the same compound, the GI50 [11] was 7.06 µM (inactive) and 13.9 µM (inactive), the GI50 [12] was 14.5 µM (inactive) and 18.4 µM (inactive) and the GI50 [13] was 9.86 µM (inactive) and 14.2 µM (inactive). For the same compound, the GI50 [15] was 10.8 µM (inactive) and 13.4 µM (inactive), the GI50 [17] was 9.68 µM (inactive) and 11.1 µM (inactive) and the GI50 [18] was 20.5 µM (inactive). For the same compound, the GI50 [19] was 26.6 µM (inactive) and 18.4 µM (inactive), the GI50 [24] was 9.91 µM (inactive) and 17.9 µM (inactive) and the GI50 [25] was 3.3 µM (inactive) and 3.16 µM (inactive). The GI50 [26] was 7.96 µM (inactive) and 14.3 µM (inactive), the GI50 [28] was 12.2 µM (inactive) and 14.1 µM (inactive) and the GI50 [29] was 11.2 µM (inactive). For the same compound, the GI50 [53] was 5.93 µM (inactive) and 10.7 µM (inactive), the GI50 [37] was 16.4 µM (inactive) and 28.8 µM (inactive) and the GI50 [38] was 15 µM (inactive) and 28.2 µM (inactive). The GI50 [39] was 7.55 µM (inactive) and 14.4 µM (inactive), the GI50 [41] was 12.1 µM (inactive) and 21.7 µM (inactive) and the GI50 [54] was 15 µM (inactive) and 18.2 µM (inactive). The GI50 [55] was 2 µM (inactive) and 3.89 µM (inactive), the GI50 [43] was 14.6 µM (inactive) and 13.2 µM (inactive) and the GI50 [44] was 17.4 µM (inactive) and 9.31 µM (inactive). For the same compound, the GI50 [46] was 2.66 µM (inactive) and 2.28 µM (inactive), the GI50 [47] was 7.28 µM (inactive) and 12.3 µM (inactive) and the GI50 [49] was 13.2 µM (inactive) and 17.5 µM (inactive). The GI50 [52] was 14.9 µM (inactive) and 16.9 µM (inactive).

In the case of `O=c1c2cc(S(=O)(=O)Nc3c(Cl)cccc3Cl)ccc2ncn1NS(=O)(=O)c1ccc2ccccc2c1`, the GI50 [1] is reported as > 62.5 µM (inactive), the GI50 [2] is reported as > 62.5 µM (inactive) and the GI50 [3] is reported as 39.6 µM. The GI50 [4] was > 62.5 µM (inactive), the GI50 [5] was 16.4 µM (inactive) and the GI50 [56] was 40.9 µM (inactive). For the same compound, the GI50 [6] was 28.8 µM (inactive), the GI50 [7] was > 62.5 µM (inactive) and the GI50 [8] was 61.8 µM (inactive). For the same compound, the GI50 [9] was 12.6 µM (inactive), the GI50 [10] was 7.46 µM (inactive) and the GI50 [57] was 42.2 µM (inactive). For the same compound, the GI50 [11] was > 62.5 µM (inactive), the GI50 [13] was 32.6 µM (inactive) and the GI50 [14] was > 62.5 µM (inactive). The GI50 [15] was 25.4 µM (inactive), the GI50 [58] was 19.6 µM (inactive) and the GI50 [16] was 41 µM (inactive). The GI50 [17] was 12.8 µM (inactive), the GI50 [18] was > 62.5 µM (inactive) and the GI50 [19] was 15.8 µM (inactive). The GI50 [20] was 20.2 µM (inactive), the GI50 [21] was 20 µM (inactive) and the GI50 [22] was 8.67 µM (inactive). For the same compound, the GI50 [23] was > 62.5 µM (inactive), the GI50 [24] was 30.3 µM (inactive) and the GI50 [25] was 42.4 µM (inactive). For the same compound, the GI50 [26] was > 62.5 µM (inactive), the GI50 [27] was > 62.5 µM (inactive) and the GI50 [28] was 50.1 µM (inactive). For the same compound, the GI50 [29] was > 62.5 µM (inactive), the GI50 [30] was 46.6 µM (inactive) and the GI50 [31] was > 62.5 µM (inactive). For the same compound, the GI50 [32] was > 62.5 µM (inactive), the GI50 [33] was 10.9 µM (inactive) and the GI50 [34] was 16.6 µM (inactive). For the same compound, the GI50 [35] was 45.4 µM (inactive), the GI50 [53] was 25.9 µM (inactive) and the GI50 [36] was > 62.5 µM (inactive). For the same compound, the GI50 [37] was 33.2 µM (inactive), the GI50 [38] was 42.9 µM (inactive) and the GI50 [39] was > 62.5 µM (inactive). The GI50 [40] was 23 µM (inactive), the GI50 [41] was > 62.5 µM (inactive) and the GI50 [55] was 24.4 µM (inactive). For the same compound, the GI50 [42] was 8.87 µM (inactive), the GI50 [43] was 17.1 µM (inactive) and the GI50 [44] was 12.9 µM (inactive). The GI50 [45] was > 62.5 µM (inactive), the GI50 [47] was > 62.5 µM (inactive) and the GI50 [48] was 15.2 µM (inactive). For the same compound, the GI50 [49] was > 62.5 µM (inactive), the GI50 [50] was > 62.5 µM (inactive) and the GI50 [51] was 22.3 µM (inactive). For the same compound, the GI50 [52] was 13 µM (inactive).
